Results from patent publication US7998972B2, “1H-imidazo[4,5-c]quinoline derivatives in the treatment of protein kinase dependent diseases” (Novartis AG, priority 2002, dated 2011).

What was measured:
Kdr = molecular target: T1, Kdr (Homo sapiens, UniProt P35968); assay: Inhibition of KDR protein tyrosine kinase in vitro; assay type: biochemical; details: GST-fused KDR kinase domain, polyGluTyr(4:1), 8 μM ATP; read-out: IC50 range class, inhibition of Kdr in vitro
T1 construct: The kinase domain of KDR is expressed as GST-fusion protein using the baculovirus system; made in house
Protocol: Inhibition of the enzyme activity of KDR protein tyrosine kinase can be determined as follows: The kinase domain of KDR is expressed as GST-fusion protein using the baculovirus system. The in vitro kinase assay is performed in 96-well plates using the recombinant GST-fused kinase domains expressed in baculovirus and purified over glutathione-Sepharose. ^33P-ATP (Amersham) is used as the phosphate donor, and the polyGluTyr(4:1) peptide (Sigma) is used as acceptor. The buffer is composed as follows: 29 mM Tris-HCl, pH 7.5; 10 mM MgCl2, 1 μM MnCl2, 8 μM ATP, 0.2 μCi ^33P-ATP, 8 μg/ml polyGluTyr. The reaction os carried out in a volume of 30 μl for 10 min at room temperature in the presence of either 1% DMSO or the test compound of formula I at the required concentration in 1% DMSO […]. The reaction is stopped by the addition of ethylenediaminetetraacetic acid to a final concentration of 60 mM. The assay mixture is then transferred onto a Immobilon-PVF membrane (Millipore), which is subsequently washed four times with 0.05% H3PO4 and once with ethanol. After drying, […] of Microscint Cocktail (Packard) is added and scintillation counting is performed (Hewlett-Packard Top Count). IC50 values are calculated by linear regression analysis of the percentage inhibition of each test compound in duplicate, at three concentrations (usually 0.01, 0.1 and 1 μM or 0.1, 1 and 10 μM).

c-Met = molecular target: T2, c-Met (Homo sapiens, UniProt P08581); assay: Inhibition of c-Met kinase (33P-ATP filter assay); assay type: biochemical; details: GST-c-Met cytoplasmic domain, poly(EY) substrate; read-out: IC50 range class, inhibition of c-Met
T2 construct: c-Met cytoplasmic domain (amino acids 969 to C-terminus); made in house; host or cells: baculovirus / Sf9 cells
Excerpt: Compounds of the formula I, for example, are able to inhibit c-Met kinase as mentioned already in the introduction. Using the sequence disclosed by Chan et al. (see Chan, A M-L, King H W S, Tempest P R, Deakin E A, Cooper C S, Brookes P. Primary structure of the met protein tyrosine kinase domain. Oncogene 1987; 12:229-233), a construct with this sequence, after hooking to a GST tag, was cloned into baculovirus and expressed in Sf9 cells. After partial purification by affinity chromatography on GST agarose resulting in a >90% pure preparation (SDS-PAGE), the kinase activity of this construct is used for inhibition assays using the compounds of formula I. The quality of the purified kinase preparations is highly reproducible: 9 batches of c-Met gives an average specific activity of 32.3±5.7 nmol/mg·min.
For inhibition studies, the following experimental protocol is used:
In vitro protein kinase assays are performed in 96-well plates. The amount of enzyme used in kinase assays and the incubation time for the kinase reaction are adjusted so that maximally 25% (in routine experiments <10%) of the substrate ATP are consumed.
Test compounds of the formula I are first dissolved in DMSO at a concentration of 1-10 mM (stock solution) and then further diluted with water/3% DMSO as required so that the final DMSO concentration in the assay is 1%.
The assay components are mixed in the following order: • 10 μl 3×compound (in 3% DMSO) • 10 μl 3×assay mix (MgCl2/MnCl2/ATP/^33P-ATP/poly(EY)) • 10 μl 3×enzyme dilution
Assays are incubated for 15 min (in special cases up to 60 min) at ambient temperature, reactions terminated by addition of 10 μl 0.25 M EDTA pH 7, then 20 μl transferred to a Millipore Immobilon^P membrane (previously soaked for 5 min with methanol, rinsed with water, then soaked for 5 min with 0.5% H3PO4 and mounted on vacuum manifold) with disconnected vacuum source. After spotting all samples, vacuum is connected and each well rinsed with 200 μl 0.5% H3PO4. Membranes are removed and washed 4× on shaker with 0.5% H3PO4, once with methanol. Membranes are counted after drying at ambient temperature, mounting in Packard TopCount 96-well frame, and addition of 10 μl/well of the scintillator Microscint™ (Packard).
IC50 values are calculated by logarithmic regression analysis of the percentage inhibition of each compound at 4 concentrations (usually 3- or 10-fold dilution series starting at 10 μM). In each experiment, the actual inhibition by reference compound is used for normalization of IC50 values to the basis of an average value of the reference inhibitor: Normalized IC50=measured IC50·average ref. IC50/measured ref. IC50 Example: • Reference inhibitor in experiment 0.4 μM, average 0.3 μM • Test compound in experiment 1.0 μM, normalization: 1.0·0.3/0.4=0.75 μM
For example, staurosporine or a synthetic staurosporine derivative are used as reference compounds.

CDK1 = assay: Inhibition of CDK1 (p34cdc2/cyclin Bcdc13 kinase, histone H1 substrate); assay type: biochemical, starfish; details: read-out: IC50 range class, inhibition of CDK1 in vitro
Protocol: Starfish oocytes are induced into the M phase with 10 μM 1-methyl-adenine, frozen in liquid nitrogen and stored at −80° C. The ooctyes are homogenized and centrifuged, as described in D. Arlon et al., Cell 55, 371-378 (1988) and V. Rialet und L. Meijer, Anticancer Res. 11, 1581-1590 (1991), as required. For purification of the p34^cdc2/cyclin B^cdc13 kinase, the supernatant of the oocytes is introduced onto p9^CKShs Sepharose grains produced from recombinant human protein p9^CKShs, as described in L. Azzi et al., Eur. J. Biochem. 203, 353-360 (1992). After 30 minutes at 4° C. under constant rotation, the grains are washed thoroughly and the active p34^cdc2/cyclin B^cdc13 kinase is eluted with free protein p9^CKShs (3 mg/ml). The kinase eluted is tested as described in L. Meijer et al., EMBO J. 8, 2275-2282 (1989) and EMBO J. 10, 1545-1554 (1991), using histone H1 as the substrate. In this test, the compounds of the formula I and their pharmaceutically acceptable salts have an inhibiting concentration IC50 [μmol/l] of 0.01 to 10, usually of 0.05 to 1.

Abl = molecular target: T3, Abl (Homo sapiens, UniProt P00519); assay: Inhibition of c-Abl protein-tyrosine kinase (filter binding assay); assay type: biochemical; details: His-tagged c-Abl kinase domain, Poly-AEKY, 5 μM ATP; read-out: IC50 range class, inhibition of Abl in vitro
T3 construct: The His-tagged kinase domain of c-Abl is cloned and expressed in the baculovirus/Sf9 system; His; made in house; host or cells: baculovirus / Sf9 cells
T3 sequence (P00519 242-493 limits assumed): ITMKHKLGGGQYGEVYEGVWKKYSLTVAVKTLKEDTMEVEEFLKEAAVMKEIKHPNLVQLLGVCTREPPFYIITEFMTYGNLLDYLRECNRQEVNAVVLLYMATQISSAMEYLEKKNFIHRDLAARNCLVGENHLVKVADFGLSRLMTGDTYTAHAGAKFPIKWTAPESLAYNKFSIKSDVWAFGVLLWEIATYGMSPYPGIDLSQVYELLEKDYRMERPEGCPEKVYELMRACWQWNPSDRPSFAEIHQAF
Protocol: An in vitro enzyme assay is performed in 96-well plates as a filter binding assay as described by Geissler et al. in Cancer Res. 1992; 52:4492-4498, with the following modifications. The His-tagged kinase domain of c-Abl is cloned and expressed in the baculovirus/Sf9 system as described by Bhat et al. in J. Biol. Chem. 1997; 272:16170-16175. A protein of 37 kD (c-Abl kinase) is purified by a two-step procedure over a Cobalt metal chelate column followed by an anion exchange column with a yield of 1-2 mg/L of Sf9 cells (Bhat et al., reference cited). The purity of the c-Abl kinase is >90% as judged by SDS-PAGE after Coomassie blue staining. The assay contains (total volume of 30 μL): c-Abl kinase (50 ng), 20 mM Tris.HCl, pH 7.5, 10 mM MgCl2, 10 μM Na3VO4, 1 mM DTT and 0.06 μCi/assay [γ^33 P]-ATP (5 μM ATP) using 30 μg/mL poly-Ala,Glu,Lys,Tyr-6:2:5:1 (Poly-AEKY, Sigma P1152) in the presence of 1% DMSO. Reactions are terminated by adding 10 μL of 250 mM EDTA and 30 μL of the reaction mixture is transferred on to Immobilon-PVDF membrane (Millipore, Bedford, Mass., USA) previously soaked for 5 min with methanol, rinsed with water, then soaked for 5 min with 0.5% H3PO4 and mounted on vacuum manifold with disconnected vacuum source. After spotting all samples, vacuum is connected and each well rinsed with 200 μL 0.5% H3PO4. Membranes are removed and washed on a shaker with 0.5% H3PO4 (4 times) and once with ethanol. Membranes are counted after drying at ambient temperature, mounting in Packard TopCount 96-well frame, and addition of 10 μL/well of Microscint™ (Packard).

T1 sequence (P35968 834-1162 limits assumed): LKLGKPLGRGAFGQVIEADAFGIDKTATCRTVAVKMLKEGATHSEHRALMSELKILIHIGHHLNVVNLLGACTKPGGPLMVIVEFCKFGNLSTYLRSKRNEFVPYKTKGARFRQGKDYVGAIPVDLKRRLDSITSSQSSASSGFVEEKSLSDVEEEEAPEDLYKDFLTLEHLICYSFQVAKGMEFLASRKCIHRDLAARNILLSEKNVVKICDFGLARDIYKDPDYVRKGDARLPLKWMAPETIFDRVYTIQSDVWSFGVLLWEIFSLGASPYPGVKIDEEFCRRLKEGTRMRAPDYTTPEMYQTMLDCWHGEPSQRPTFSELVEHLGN
T2 sequence (P08581 969-1390 limits assumed): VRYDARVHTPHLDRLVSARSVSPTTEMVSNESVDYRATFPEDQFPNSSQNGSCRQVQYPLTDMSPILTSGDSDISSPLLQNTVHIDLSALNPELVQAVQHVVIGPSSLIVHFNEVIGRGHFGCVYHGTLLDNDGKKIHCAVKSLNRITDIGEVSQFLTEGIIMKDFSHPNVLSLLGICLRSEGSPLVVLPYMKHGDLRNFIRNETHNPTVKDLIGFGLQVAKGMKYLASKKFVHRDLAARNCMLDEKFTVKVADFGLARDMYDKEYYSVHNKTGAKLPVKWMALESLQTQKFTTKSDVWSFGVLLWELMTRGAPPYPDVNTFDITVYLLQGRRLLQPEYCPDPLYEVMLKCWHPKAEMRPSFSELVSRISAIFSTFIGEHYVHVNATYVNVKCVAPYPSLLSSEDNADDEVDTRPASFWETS

IC50 (Kdr) [nM]	IC50 (c-Met) [nM]	IC50 (CDK1) [nM]	IC50 (Abl) [nM]	SMILES
1000 to 2000	–	–	–	COc1ccc2ncc3ncn(-c4ccccc4)c3c2c1 [Example 48, 8-Methoxy-1-phenyl-1H-imidazo[4,5-]quinoline]
–	≤ 500	≤ 500	–	CCc1ccc2ncc3ncn(-c4ccccc4F)c3c2c1 [Example 50, 8-Ethyl-1-(2-fluoro-phenyl)-1H-imidazo[4,5-c]quinoline]
≤ 500	–	–	≤ 500	Nc1cccc(-n2cnc3cnc4ccc(-c5ccccc5)cc4c32)c1 [Example 58, 3-(8-Phenyl-imidazo[4,5-c]quinolin-1-yl)-phenylamine]
≤ 500	–	–	≤ 500	OCc1cccc(-n2cnc3cnc4ccc(-c5ccccc5)cc4c32)c1 [Example 62, [3-(8-Phenyl-imidazo[4,5-c]quinolin-1-yl)-phenyl]-methanol]
500 to 1000	≤ 500	–	–	O=c1[nH]c2cnc3ccc(Br)cc3c2n1-c1ccccc1Cl [Example 93, 8-Bromo-1-(2-chloro-phenyl)-1,3-dihydro-imidazo[4,5-c]quinolin-2-one]
–	≤ 500	1000 to 2000	–	Cn1c(=O)n(-c2ccccc2Cl)c2c3cc(Br)ccc3ncc21 [Example 104, 8-Bromo-1-(2-chloro-phenyl)-3-methyl-1,3-dihydro-imidazo[4,5-c]quinolin-2-one]
≤ 500	500 to 1000	≤ 500	–	CCn1c(=O)n(-c2ccccc2Cl)c2c3cc(Cl)ccc3ncc21 [Example 108, 8-Chloro-1-(2-chloro-phenyl)-3-ethyl-1,3-dihydro-imidazo[4,5-c]quinolin-2-one]
1000 to 2000	≤ 500	1000 to 2000	–	CCn1c(=O)n(-c2ccccc2Cl)c2c3cc(Br)ccc3ncc21 [Example 113, 8-Bromo-1-(2-chloro-phenyl)-3-ethyl-1,3-dihydro-imidazo[4,5-c]quinolin-2-one]
≤ 500	500 to 1000	≤ 500	–	CC(C)n1c(=O)n(-c2ccccc2Cl)c2c3cc(Br)ccc3ncc21 [Example 114, 8-Bromo-1-(2-chloro-phenyl)-3-isopropyl-1,3-dihydro-imidazo[4,5-c]quinolin-2-one]
–	–	500 to 1000	–	O=c1n(CC2CC2)c2cnc3ccc(Cl)cc3c2n1-c1ccccc1Cl [Example 128, 8-Chloro-1-(2-chloro-phenyl)-3-(cyclopropyl-methyl)-1,3-dihydro-imidazo[4,5-c]quinolin-2-one]
≤ 500	–	–	≤ 500	COc1cccc(-c2ccc3ncc4ncn(-c5ccccc5Cl)c4c3c2)c1 [Example 140, 1-(2-Chloro-phenyl)-8-(3-methoxy-phenyl)-1H-imidazo[4,5-c]quinoline]
–	–	–	≤ 500	COc1ccccc1-c1ccc2ncc3ncn(-c4ccccc4Cl)c3c2c1 [Example 142, 1-(2-Chloro-phenyl)-8-(2-methoxy-phenyl)-1H-imidazo[4,5-c]quinoline]
